# From ChEMBL document CHEMBL1201862, “PubChem BioAssay data set” (2004)
#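 Where inhibition never reached the appropriate level, the endpoint shown equals the highest concentration tested. Otherwise, values were interpolated linearly from a five-concentration, 48-hour dose response in 96-well plates. GI50 = concentration required for 50% inhibition of growth.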 Active and inactive are the calls of the source. No stated cut-off is given here; in the data, active = GI50 up to about 1.1 µM and inactive = higher.
# Columns and labels:
# Experiment in all cases: NCI tumour cell line growth inhibition, 48 h
# UACC-257 = system: UACC-257
# SK-MEL-28 = system: SK-MEL-28
# KM12 = system: KM12
# HCT-116 = system: HCT-116
# MOLT-4 = system: MOLT-4
# HOP-62 = system: HOP-62
# SNB-19 = system: SNB-19
# NCI/ADR-RES = system: NCI/ADR-RES
# HCT-15 = system: HCT-15
# NCI-H226 = system: NCI-H226
# RPMI-8226 = system: RPMI-8226
# OVCAR-4 = system: OVCAR-4
# SNB-75 = system: SNB-75
# OVCAR-3 = system: OVCAR-3
# OVCAR-5 = system: OVCAR-5
# RXF 393 = system: RXF 393
# OVCAR-8 = system: OVCAR-8
# PC-3 = system: PC-3
# HCC 2998 = system: HCC 2998
# HL-60 = system: HL-60
SMILES,GI50 (UACC-257),GI50 (SK-MEL-28),GI50 (KM12),GI50 (HCT-116),GI50 (MOLT-4),GI50 (HOP-62),GI50 (SNB-19),GI50 (NCI/ADR-RES),GI50 (HCT-15),GI50 (NCI-H226),GI50 (RPMI-8226),GI50 (OVCAR-4),GI50 (SNB-75),GI50 (OVCAR-3),GI50 (OVCAR-5),GI50 (RXF 393),GI50 (OVCAR-8),GI50 (PC-3),GI50 (HCC 2998),GI50 (HL-60)
Nc1nc(-c2ccccc2)cc(-c2ccc(OCc3ccccc3)cc2O)n1,48.8 µM (inactive),89.9 µM (inactive),34.4 µM (inactive),28.8 µM (inactive),48.4 µM (inactive),83.9 µM (inactive),50.2 µM (inactive),29.4 µM (inactive),32.2 µM,46.1 µM (inactive),22.7 µM (inactive),71.6 µM (inactive),67.6 µM (inactive),26.7 µM (inactive),> 100 µM (inactive),27.5 µM (inactive),29.6 µM (inactive),34.4 µM (inactive),34.4 µM (inactive),
CC(C)(C)NC1C2CCC(C)(C1O)C2(C)C (stereo not drawn),> 100 µM (inactive),> 100 µM (inactive),> 100 µM (inactive),> 100 µM (inactive),> 100 µM (inactive),> 100 µM (inactive),> 100 µM (inactive),> 100 µM (inactive),> 100 µM,,> 100 µM (inactive),> 100 µM (inactive),0.021 µM (active),> 100 µM (inactive),> 100 µM (inactive),> 100 µM (inactive),> 100 µM (inactive),> 100 µM (inactive),> 100 µM (inactive),
N#Cc1cccc2c1Sc1ccccc1N2,35.1 µM (inactive),,32.7 µM (inactive),31.3 µM (inactive),11.5 µM (inactive),,33.1 µM (inactive),31.3 µM (inactive),23.6 µM,29.3 µM (inactive),27.7 µM (inactive),,1.77 µM (inactive),57 µM (inactive),26.7 µM (inactive),3.7 µM (inactive),29.5 µM (inactive),14.1 µM (inactive),27 µM (inactive),27.3 µM (inactive)
Cc1ccc(-c2c(C#N)c(-c3ccccc3)n(NS(=O)(=O)c3ccccc3)c(=O)c2C#N)cc1,> 100 µM (inactive),> 100 µM (inactive),89.3 µM (inactive),74.5 µM (inactive),20.7 µM (inactive),64.7 µM (inactive),76 µM (inactive),63.5 µM (inactive),60 µM,> 100 µM (inactive),19.6 µM (inactive),> 100 µM (inactive),67.6 µM (inactive),,> 100 µM (inactive),63.4 µM (inactive),> 100 µM (inactive),48.1 µM (inactive),47.3 µM (inactive),
O=[N+]([O-])/C(C(Cl)=C(Cl)Cl)=C1\NCCO1,> 100 µM (inactive),> 100 µM (inactive),> 100 µM (inactive),87.5 µM (inactive),69.5 µM (inactive),> 100 µM (inactive),> 100 µM (inactive),> 100 µM (inactive),> 100 µM,39.3 µM (inactive),> 100 µM (inactive),35.1 µM (inactive),,52.5 µM (inactive),> 100 µM (inactive),90.4 µM (inactive),> 100 µM (inactive),> 100 µM (inactive),> 100 µM (inactive),81.5 µM (inactive)
Cn1c(=O)nc2n(CCO)c(-c3ccccc3)c(-c3ccccc3)nc-2c1=O,> 100 µM (inactive),> 100 µM (inactive),> 100 µM (inactive),> 100 µM (inactive),> 100 µM (inactive),> 100 µM (inactive),> 100 µM (inactive),> 100 µM (inactive),> 100 µM,> 100 µM (inactive),> 100 µM (inactive),> 100 µM (inactive),> 100 µM (inactive),> 100 µM (inactive),> 100 µM (inactive),> 100 µM (inactive),> 100 µM (inactive),> 100 µM (inactive),> 100 µM (inactive),
COC(=O)NNC(c1ccc(Cl)cc1)c1ccc(Cl)cc1,18.2 µM (inactive),18.7 µM (inactive),17 µM (inactive),15.7 µM (inactive),16.5 µM (inactive),,17.3 µM (inactive),18.2 µM (inactive),15.2 µM,17.3 µM (inactive),20.9 µM (inactive),20.8 µM (inactive),26.2 µM (inactive),15.2 µM (inactive),15.7 µM (inactive),10.5 µM (inactive),19.1 µM (inactive),12.2 µM (inactive),13.5 µM (inactive),21 µM (inactive)
COc1cc2ccnc3c2c(c1O)N(C)C=C3,15.6 µM (inactive),24.9 µM (inactive),19.4 µM (inactive),4 µM (inactive),4.26 µM (inactive),22 µM (inactive),25.5 µM (inactive),18.7 µM (inactive),15 µM,18 µM (inactive),4.18 µM (inactive),16 µM (inactive),21.5 µM (inactive),4.62 µM (inactive),16.7 µM (inactive),14.3 µM (inactive),9.53 µM (inactive),13.8 µM (inactive),23 µM (inactive),
COc1ccc(N2C(=O)C3c4[nH]c5ccccc5c4C4C(C)CCCC4C3C2=O)cc1 (stereo not drawn),39.3 µM (inactive),> 71.1 µM (inactive),13.8 µM (inactive),13 µM (inactive),7.21 µM (inactive),23.6 µM (inactive),> 44.6 µM (inactive),14.9 µM (inactive),> 34 µM,41.3 µM (inactive),12.8 µM (inactive),33.7 µM (inactive),19.7 µM (inactive),26.1 µM (inactive),> 63.8 µM (inactive),> 26.6 µM (inactive),34 µM (inactive),17.7 µM (inactive),> 100 µM (inactive),
COc1cc(CNC2=NCCC2)cc(OC)c1OC,> 100 µM (inactive),> 100 µM (inactive),> 10 µM (inactive),39.6 µM (inactive),> 100 µM (inactive),> 100 µM (inactive),> 100 µM (inactive),> 100 µM (inactive),> 100 µM,> 100 µM (inactive),,> 100 µM (inactive),> 100 µM (inactive),> 100 µM (inactive),> 100 µM (inactive),> 100 µM (inactive),> 100 µM (inactive),> 100 µM (inactive),> 100 µM (inactive),> 100 µM (inactive)
O=c1oc2ccc3ccccc3c2cc1-c1cn2ccsc2n1,24.8 µM (inactive),26 µM (inactive),20.6 µM (inactive),16 µM (inactive),3.41 µM (inactive),34.5 µM (inactive),> 100 µM (inactive),29.1 µM (inactive),16 µM,,11.5 µM (inactive),19.6 µM (inactive),> 100 µM (inactive),17.9 µM (inactive),24.9 µM (inactive),17.3 µM (inactive),19.2 µM (inactive),26.7 µM (inactive),16.7 µM (inactive),17.8 µM (inactive)
COc1ccc(/N=C2\C(=N/c3ccc(OC)cc3)N(c3ccccc3[N+](=O)[O-])C(=S)N2c2ccc(OC)cc2)cc1,,> 100 µM (inactive),> 100 µM (inactive),35.6 µM (inactive),21.8 µM (inactive),71.3 µM (inactive),> 100 µM (inactive),> 100 µM (inactive),> 100 µM,61.9 µM (inactive),> 100 µM (inactive),,> 100 µM (inactive),> 100 µM (inactive),> 100 µM (inactive),23.9 µM (inactive),> 100 µM (inactive),91.6 µM (inactive),> 100 µM (inactive),
O=S(=O)(O)c1ccc(/N=N/c2ccccc2)cc1,> 100 µM (inactive),> 100 µM (inactive),> 100 µM (inactive),> 100 µM (inactive),> 100 µM (inactive),> 100 µM (inactive),> 100 µM (inactive),> 100 µM (inactive),> 100 µM,> 100 µM (inactive),> 100 µM (inactive),> 100 µM (inactive),,> 100 µM (inactive),> 100 µM (inactive),> 100 µM (inactive),> 100 µM (inactive),> 100 µM (inactive),> 100 µM (inactive),> 100 µM (inactive)
CC(C)(C)OC(=O)NCCC1CNc2ccccc21 (stereo not drawn),> 100 µM (inactive),> 100 µM (inactive),> 100 µM (inactive),> 100 µM (inactive),> 100 µM (inactive),> 100 µM (inactive),> 100 µM (inactive),> 100 µM (inactive),> 100 µM,,> 100 µM (inactive),> 100 µM (inactive),> 100 µM (inactive),> 100 µM (inactive),> 100 µM (inactive),> 100 µM (inactive),> 100 µM (inactive),> 100 µM (inactive),> 100 µM (inactive),
C=C(Br)COc1ccc2c(C)cc(=O)oc2c1,73.5 µM (inactive),> 100 µM (inactive),0.319 µM (active),59.3 µM (inactive),34.4 µM (inactive),69.8 µM (inactive),> 100 µM (inactive),47.4 µM (inactive),57.7 µM,> 100 µM (inactive),44.6 µM (inactive),50.7 µM (inactive),,86.3 µM (inactive),> 100 µM (inactive),0.0721 µM (active),47.9 µM (inactive),> 100 µM (inactive),95.3 µM (inactive),40.2 µM (inactive)
